In US20120121591A1 (priority 2009, published 2012):
Where two headings read alike, the source gives them in different places.

Experiments:
Format in all cases: cell-based
hKv1.3 = hKv1.3 (Homo sapiens, UniProt P22001); assay: cell-based; conditions: Kv1.3 (IWQ) IC50 (nM, Avg)
[1] = test system: IFN-g secretion from T cells in human whole blood
[2] = test system: IL-2 secretion from T cells in human whole blood; conditions: read-out: WB (IL-2) IC50 (nM, Avg)
[3] = read-out: WB (IFNg) IC5- (nM, Avg)
[4] = read-out: WB (IFNg) IC50 (nM, Avg)

hKv1.3, sequence (P22001 whole entry): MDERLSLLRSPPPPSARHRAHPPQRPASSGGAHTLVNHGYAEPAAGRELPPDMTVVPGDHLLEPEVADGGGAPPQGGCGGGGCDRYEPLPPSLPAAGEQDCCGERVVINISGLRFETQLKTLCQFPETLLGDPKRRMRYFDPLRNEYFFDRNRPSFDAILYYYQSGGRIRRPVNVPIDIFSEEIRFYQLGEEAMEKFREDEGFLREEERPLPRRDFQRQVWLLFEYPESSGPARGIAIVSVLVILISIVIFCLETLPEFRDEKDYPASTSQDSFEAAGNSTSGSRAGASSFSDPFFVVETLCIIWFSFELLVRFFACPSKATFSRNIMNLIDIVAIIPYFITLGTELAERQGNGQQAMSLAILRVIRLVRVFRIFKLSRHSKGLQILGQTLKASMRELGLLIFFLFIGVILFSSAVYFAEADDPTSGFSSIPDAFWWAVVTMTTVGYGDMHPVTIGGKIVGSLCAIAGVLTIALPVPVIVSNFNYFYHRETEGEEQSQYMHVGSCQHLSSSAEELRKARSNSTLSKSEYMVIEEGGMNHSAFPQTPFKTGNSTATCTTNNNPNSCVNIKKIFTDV

CC[C@H](C)[C@@H]1NC(=O)[C@@H](NC(=O)[C@H](CO)NC(=O)[C@@H](N)CCCNC(=N)N)CSSC[C@@H](C(=O)O)NC(=O)[C@H]([C@@H](C)O)NC(=O)CNC(=O)[C@@H]2CSSC[C@@H]3NC(=O)[C@H](CCC(N)=O)NC(=O)[C@H](Cc4ccccc4)NC(=O)[C@H](C)NC(=O)[C@H]([C@@H](C)O)NC(=O)[C@H](CSSC[C@H](NC(=O)[C@H](Cc4ccccc4)NC(=O)[C@H](CO)NC(=O)[C@H](CC(C)C)NC(=O)[C@H](CCCNC(=N)N)NC(=O)[C@H](Cc4ccc(O)cc4)NC(=O)[C@H](CCCCN)NC(=O)[C@H](CCSC)NC(=O)[C@H](CO)NC(=O)[C@H](Cc4c[nH]cn4)NC(=O)[C@H](CCCCN)NC3=O)C(=O)N[C@@H](CCCNC(=N)N)C(=O)N[C@@H](CCCCN)C(=O)N[C@@H]([C@@H](C)O)C(=O)N2)NC(=O)[C@H](CCCNC(=N)N)NC(=O)[C@H](CO)NC(=O)[C@H](CCCCN)NC(=O)[C@@H]2CCCN2C(=O)[C@H]([C@@H](C)CC)NC(=O)[C@H]([C@@H](C)O)NC(=O)[C@H](CCC(=O)O)NC1=O [[Glu5]ShK] showed an IC50 (hKv1.3) of 3.3 nM, an IC50 [1, 3] of 24.6 nM and an IC50 [2] of 16.9 nM.
CC[C@H](C)[C@@H]1NC(=O)[C@@H](NC(=O)[C@H](CO)NC(=O)[C@@H](N)CCCNC(=N)N)CSSC[C@@H](C(=O)O)NC(=O)[C@H]([C@@H](C)O)NC(=O)CNC(=O)[C@@H]2CSSC[C@@H]3NC(=O)[C@H](CCC(N)=O)NC(=O)[C@H](CCCNC(=N)N)NC(=O)[C@H](C)NC(=O)[C@H]([C@@H](C)O)NC(=O)[C@H](CSSC[C@H](NC(=O)[C@H](Cc4ccccc4)NC(=O)[C@H](CO)NC(=O)[C@H](CC(C)C)NC(=O)[C@H](CCCNC(=N)N)NC(=O)[C@H](Cc4ccc(O)cc4)NC(=O)[C@H](CCCCN)NC(=O)[C@H](CCSC)NC(=O)[C@H](CO)NC(=O)[C@H](Cc4c[nH]cn4)NC(=O)[C@H](CCCCN)NC3=O)C(=O)N[C@@H](CCCNC(=N)N)C(=O)N[C@@H](CCCCN)C(=O)N[C@@H]([C@@H](C)O)C(=O)N2)NC(=O)[C@H](CCCNC(=N)N)NC(=O)[C@H](CO)NC(=O)[C@H](CCCCN)NC(=O)[C@@H]2CCCN2C(=O)[C@H]([C@@H](C)CC)NC(=O)[C@H]([C@@H](C)O)NC(=O)[C@H](CC(=O)O)NC1=O [[Arg15]ShK] was tested, and the IC50 (hKv1.3) was 0.088 nM, the IC50 [1, 4] was 0.204 nM and the IC50 [2] was 0.162 nM.
For CC[C@H](C)[C@@H]1NC(=O)[C@@H](NC(=O)[C@H](CO)NC(=O)[C@@H](N)CCCNC(=N)N)CSSC[C@@H](C(=O)O)NC(=O)[C@H]([C@@H](C)O)NC(=O)CNC(=O)[C@@H]2CSSC[C@@H]3NC(=O)[C@H](CCC(N)=O)NC(=O)[C@H](Cc4ccccc4)NC(=O)[C@H](C)NC(=O)[C@H]([C@@H](C)O)NC(=O)[C@H](CSSC[C@H](NC(=O)[C@H](Cc4ccccc4)NC(=O)[C@H](CO)NC(=O)[C@H](CC(C)C)NC(=O)[C@H](CCCNC(=N)N)NC(=O)[C@H](Cc4ccc(O)cc4)NC(=O)[C@H](CCCCN)NC(=O)[C@H](CCSC)NC(=O)[C@H](CO)NC(=O)[C@H](Cc4c[nH]cn4)NC(=O)[C@H](CCCCN)NC3=O)C(=O)N[C@@H](CCCNC(=N)N)C(=O)N[C@@H](CCCCN)C(=O)N[C@@H]([C@@H](C)O)C(=O)N2)NC(=O)[C@H](CCCNC(=N)N)NC(=O)[C@H](CO)NC(=O)[C@H](CCCCN)NC(=O)[C@H](C)NC(=O)[C@H]([C@@H](C)CC)NC(=O)[C@H]([C@@H](C)O)NC(=O)[C@H](CC(=O)O)NC1=O [[Ala8]ShK], the IC50 (hKv1.3) was 0.078 nM, the IC50 [1, 4] was 0.061 nM and the IC50 [2] was 0.039 nM.
CC[C@H](C)[C@@H]1NC(=O)[C@@H](NC(=O)[C@H](CO)NC(=O)[C@@H](N)CCCNC(=N)N)CSSC[C@@H](C(=O)O)NC(=O)[C@H]([C@@H](C)O)NC(=O)CNC(=O)[C@@H]2CSSC[C@@H]3NC(=O)[C@H](CCC(N)=O)NC(=O)[C@H](Cc4ccccc4)NC(=O)[C@H](C)NC(=O)[C@H]([C@@H](C)O)NC(=O)[C@H](CSSC[C@H](NC(=O)[C@H](Cc4ccccc4)NC(=O)[C@H](CO)NC(=O)[C@H](CC(C)C)NC(=O)[C@H](CCCNC(=N)N)NC(=O)[C@H](Cc4ccc(O)cc4)NC(=O)[C@H](CCCCN)NC(=O)[C@H](CCSC)NC(=O)[C@H](CO)NC(=O)[C@H](Cc4c[nH]cn4)NC(=O)[C@H](CCCCN)NC3=O)C(=O)N[C@@H](CCCNC(=N)N)C(=O)N[C@@H](CCCCN)C(=O)N[C@@H]([C@@H](C)O)C(=O)N2)NC(=O)[C@H](CCCNC(=N)N)NC(=O)[C@H](CO)NC(=O)[C@H](CCCCN)NC(=O)[C@@H]2CCCN2C(=O)[C@H](CCC(=O)O)NC(=O)[C@H]([C@@H](C)O)NC(=O)[C@H](CC(=O)O)NC1=O [[Glu7]ShK] showed an IC50 (hKv1.3) of 1.25 nM, an IC50 [1, 3] of 19.5 nM and an IC50 [2] of 5 nM.
Compound CC[C@H](C)[C@@H]1NC(=O)[C@@H](NC(=O)[C@H](CO)NC(=O)[C@@H](N)CCCNC(=N)N)CSSC[C@@H](C(N)=O)NC(=O)[C@H]([C@@H](C)O)NC(=O)CNC(=O)[C@@H]2CSSC[C@@H]3NC(=O)[C@H](CCCCN)NC(=O)[C@H](Cc4ccccc4)NC(=O)[C@H](C)NC(=O)[C@H]([C@@H](C)O)NC(=O)[C@H](CSSC[C@H](NC(=O)[C@H](Cc4ccccc4)NC(=O)[C@H](CO)NC(=O)[C@H](CC(C)C)NC(=O)[C@H](CCCNC(=N)N)NC(=O)[C@H](Cc4ccc(O)cc4)NC(=O)[C@H](CCCCN)NC(=O)[C@H](CCSC)NC(=O)[C@H](CO)NC(=O)[C@H](Cc4c[nH]cn4)NC(=O)[C@H](CCCCN)NC3=O)C(=O)N[C@@H](CCCNC(=N)N)C(=O)N[C@@H](CCC(=O)O)C(=O)N[C@@H]([C@@H](C)O)C(=O)N2)NC(=O)[C@H](CCCNC(=N)N)NC(=O)[C@H](CO)NC(=O)[C@H](CCCCN)NC(=O)[C@@H]2CCCN2C(=O)[C@H]([C@@H](C)CC)NC(=O)[C@H]([C@@H](C)O)NC(=O)[C@H](CC(=O)O)NC1=O [[Lys16, Glu30]ShK-amide] has an IC50 (hKv1.3) of 0.028 nM, an IC50 [1, 4] of 0.144 nM and an IC50 [2] of 0.105 nM.
For CC[C@H](C)[C@@H]1NC(=O)[C@@H](NC(=O)[C@H](CO)NC(=O)[C@@H](N)CCCNC(=N)N)CSSC[C@@H](C(=O)O)NC(=O)[C@H]([C@@H](C)O)NC(=O)CNC(=O)[C@@H]2CSSC[C@@H]3NC(=O)[C@H](CCC(N)=O)NC(=O)[C@H](Cc4ccccc4)NC(=O)[C@H](C)NC(=O)[C@H](CCCCN)NC(=O)[C@H](CSSC[C@H](NC(=O)[C@H](Cc4ccccc4)NC(=O)[C@H](CO)NC(=O)[C@H](CC(C)C)NC(=O)[C@H](CCCNC(=N)N)NC(=O)[C@H](Cc4ccc(O)cc4)NC(=O)[C@H](CCCCN)NC(=O)[C@H](CCSC)NC(=O)[C@H](CO)NC(=O)[C@H](Cc4c[nH]cn4)NC(=O)[C@H](CCCCN)NC3=O)C(=O)N[C@@H](CCCNC(=N)N)C(=O)N[C@@H](CCCCN)C(=O)N[C@@H]([C@@H](C)O)C(=O)N2)NC(=O)[C@H](CCCNC(=N)N)NC(=O)[C@H](CO)NC(=O)[C@H](CCCCN)NC(=O)[C@@H]2CCCN2C(=O)[C@H]([C@@H](C)CC)NC(=O)[C@H]([C@@H](C)O)NC(=O)[C@H](CC(=O)O)NC1=O [[Lys13]ShK], the IC50 (hKv1.3) was 0.157 nM, the IC50 [1, 4] was 0.363 nM and the IC50 [2] was 0.257 nM.
